Results as given in ChEMBL document CHEMBL1201862, “PubChem BioAssay data set” (2004).
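Following 48 hours of exposure in 96-well plates, responses at five concentrations were used to interpolate endpoints linearly. At the GI50, growth is halved.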 Active and inactive are the calls of the source. Rule as the data show it: active = GI50 up to about 1.1 µM and inactive = higher.

How the values were obtained:
Test in all cases: NCI anticancer screen, dose series, 48 h
786-0 = test system: 786-0
A498 = test system: A498
A549 = test system: A549
ACHN = test system: ACHN
CAKI-1 = test system: CAKI-1
CCRF-CEM = test system: CCRF-CEM
COLO 205 = test system: COLO 205
DLD-1 = test system: DLD-1
DMS-114 = test system: DMS-114
DMS-273 = test system: DMS-273
EKVX = test system: EKVX
HCC 2998 = test system: HCC 2998
HCT-116 = test system: HCT-116
HCT-15 = test system: HCT-15
HL-60 = test system: HL-60
HOP-18 = test system: HOP-18
HOP-62 = test system: HOP-62
HOP-92 = test system: HOP-92
HT-29 = test system: HT-29
IGROV-1 = test system: IGROV-1
K562 = test system: K562
KM-20L2 = test system: KM-20L2
KM12 = test system: KM12
LOX IMVI = test system: LOX IMVI
LXFL 529 = test system: LXFL 529
M14 = test system: M14
MOLT-4 = test system: MOLT-4
Malme-3M = test system: Malme-3M
NCI-H226 = test system: NCI-H226
NCI-H23 = test system: NCI-H23
NCI-H460 = test system: NCI-H460
NCI-H522 = test system: NCI-H522
OVCAR-3 = test system: OVCAR-3
OVCAR-4 = test system: OVCAR-4
OVCAR-5 = test system: OVCAR-5
OVCAR-8 = test system: OVCAR-8
RPMI-8226 = test system: RPMI-8226
RXF 393 = test system: RXF 393
SF-268 = test system: SF-268
SF-295 = test system: SF-295
SF-539 = test system: SF-539
SK-MEL-28 = test system: SK-MEL-28
SK-MEL-2 = test system: SK-MEL-2
SK-MEL-5 = test system: SK-MEL-5
SK-OV-3 = test system: SK-OV-3
SN12C = test system: SN12C
SNB-19 = test system: SNB-19
SNB-75 = test system: SNB-75
SNB-78 = test system: SNB-78
SR = test system: SR
SW-620 = test system: SW-620
TK-10 = test system: TK-10
U-251 = test system: U-251
UACC-257 = test system: UACC-257
UACC-62 = test system: UACC-62
UO-31 = test system: UO-31
XF498 = test system: XF498
M19-MEL = test system: M19-MEL
RXF 631 = test system: RXF 631

O=C(CC(=O)c1ccccc1)C(=O)Nc1ccc(Cl)cc1
GI50 (786-0): > 67.6 µM (inactive)
GI50 (A498): > 100 µM (inactive)
GI50 (A549): > 94.6 µM (inactive)
GI50 (ACHN): > 100 µM (inactive)
GI50 (CAKI-1): > 100 µM (inactive)
GI50 (CCRF-CEM): > 100 µM (inactive)
GI50 (COLO 205): > 46.2 µM (inactive)
GI50 (DLD-1): > 58.9 µM (inactive)
GI50 (DMS-114): > 40.4 µM (inactive)
GI50 (DMS-273): > 56.5 µM (inactive)
GI50 (EKVX): > 100 µM (inactive)
GI50 (HCC 2998): > 64.3 µM (inactive)
GI50 (HCT-116): > 42.8 µM (inactive)
GI50 (HCT-15): > 42.9 µM
GI50 (HL-60): > 100 µM (inactive)
GI50 (HOP-18): > 100 µM (inactive)
GI50 (HOP-62): > 100 µM (inactive)
GI50 (HOP-92): > 100 µM (inactive)
GI50 (HT-29): > 42.8 µM (inactive)
GI50 (IGROV-1): > 100 µM (inactive)
GI50 (K562): > 85.5 µM (inactive)
GI50 (KM-20L2): > 100 µM (inactive)
GI50 (KM12): > 100 µM (inactive)
GI50 (LOX IMVI): > 42 µM (inactive)
GI50 (LXFL 529): > 100 µM (inactive)
GI50 (M14): > 100 µM (inactive)
GI50 (MOLT-4): > 100 µM (inactive)
GI50 (Malme-3M): > 100 µM (inactive)
GI50 (NCI-H226): > 100 µM (inactive)
GI50 (NCI-H23): > 100 µM (inactive)
GI50 (NCI-H460): > 39.5 µM (inactive)
GI50 (NCI-H522): 97.9 µM (inactive)
GI50 (OVCAR-3): > 100 µM (inactive)
GI50 (OVCAR-4): > 100 µM (inactive)
GI50 (OVCAR-5): > 100 µM (inactive)
GI50 (OVCAR-8): > 100 µM (inactive)
GI50 (RPMI-8226): > 100 µM (inactive)
GI50 (RXF 393): > 100 µM (inactive)
GI50 (SF-268): > 100 µM (inactive)
GI50 (SF-295): > 100 µM (inactive)
GI50 (SF-539): > 100 µM (inactive)
GI50 (SK-MEL-28): > 100 µM (inactive)
GI50 (SK-MEL-2): > 100 µM (inactive)
GI50 (SK-MEL-5): > 100 µM (inactive)
GI50 (SK-OV-3): > 100 µM (inactive)
GI50 (SN12C): > 100 µM (inactive)
GI50 (SNB-19): > 100 µM (inactive)
GI50 (SNB-75): > 64 µM (inactive)
GI50 (SNB-78): > 100 µM (inactive)
GI50 (SR): > 100 µM (inactive)
GI50 (SW-620): > 42.8 µM (inactive)
GI50 (TK-10): > 100 µM (inactive)
GI50 (U-251): > 100 µM (inactive)
GI50 (UACC-257): > 61.5 µM (inactive)
GI50 (UACC-62): > 100 µM (inactive)
GI50 (UO-31): > 100 µM (inactive)
GI50 (XF498): > 100 µM (inactive)

N#CC1([N+](=O)[O-])C=C1c1ccccc1 (stereo unspecified)
GI50 (786-0): 28.8 µM (inactive)
GI50 (A549): > 100 µM (inactive)
GI50 (ACHN): 38.6 µM (inactive)
GI50 (CAKI-1): 82.4 µM (inactive)
GI50 (CCRF-CEM): 21.1 µM (inactive)
GI50 (COLO 205): > 100 µM (inactive)
GI50 (DLD-1): 8.81 µM (inactive)
GI50 (DMS-114): 48.6 µM (inactive)
GI50 (DMS-273): > 100 µM (inactive)
GI50 (EKVX): > 100 µM (inactive)
GI50 (HCT-116): 32.4 µM (inactive)
GI50 (HCT-15): 36.7 µM
GI50 (HL-60): 23.3 µM (inactive)
GI50 (HOP-62): > 100 µM (inactive)
GI50 (HT-29): 35.9 µM (inactive)
GI50 (IGROV-1): > 100 µM (inactive)
GI50 (K562): 23.2 µM (inactive)
GI50 (KM-20L2): > 100 µM (inactive)
GI50 (KM12): > 100 µM (inactive)
GI50 (LOX IMVI): 28.6 µM (inactive)
GI50 (LXFL 529): 32.1 µM (inactive)
GI50 (M14): 42.6 µM (inactive)
GI50 (M19-MEL): 56.1 µM (inactive)
GI50 (MOLT-4): 22.7 µM (inactive)
GI50 (Malme-3M): 63 µM (inactive)
GI50 (NCI-H226): 95.3 µM (inactive)
GI50 (NCI-H23): > 100 µM (inactive)
GI50 (NCI-H460): 51.2 µM (inactive)
GI50 (NCI-H522): 23.4 µM (inactive)
GI50 (OVCAR-3): > 100 µM (inactive)
GI50 (OVCAR-4): > 100 µM (inactive)
GI50 (OVCAR-5): > 100 µM (inactive)
GI50 (OVCAR-8): > 100 µM (inactive)
GI50 (RPMI-8226): 19.5 µM (inactive)
GI50 (RXF 631): > 100 µM (inactive)
GI50 (SF-268): 53.7 µM (inactive)
GI50 (SF-295): > 100 µM (inactive)
GI50 (SF-539): > 100 µM (inactive)
GI50 (SK-MEL-2): > 100 µM (inactive)
GI50 (SK-MEL-5): 57.3 µM (inactive)
GI50 (SK-OV-3): > 100 µM (inactive)
GI50 (SN12C): > 100 µM (inactive)
GI50 (SNB-19): > 100 µM (inactive)
GI50 (SNB-78): 81.5 µM (inactive)
GI50 (SR): 25.2 µM (inactive)
GI50 (SW-620): 19.9 µM (inactive)
GI50 (TK-10): > 100 µM (inactive)
GI50 (U-251): > 100 µM (inactive)
GI50 (UACC-257): 78 µM (inactive)
GI50 (UACC-62): 20.9 µM (inactive)
GI50 (UO-31): > 100 µM (inactive)

COc1cc(C2c3cc4c(cc3[C@@H](N(C)C)[C@H]3COC(=O)C23)OCO4)cc(OC)c1O (stereo partly specified)
GI50 (786-0): 33.2 µM (inactive)
GI50 (A498): 23.3 µM (inactive)
GI50 (A549): 45.9 µM (inactive)
GI50 (ACHN): 41.5 µM (inactive)
GI50 (CAKI-1): 23.7 µM (inactive)
GI50 (CCRF-CEM): 49.1 µM (inactive)
GI50 (COLO 205): 39.4 µM (inactive)
GI50 (DLD-1): 41.9 µM (inactive)
GI50 (DMS-273): 32.5 µM (inactive)
GI50 (EKVX): 64.4 µM (inactive)
GI50 (HCC 2998): 53.6 µM (inactive)
GI50 (HCT-116): 38 µM (inactive)
GI50 (HCT-15): 31.1 µM
GI50 (HL-60): 33.4 µM (inactive)
GI50 (HOP-62): 50.4 µM (inactive)
GI50 (HOP-92): 11.2 µM (inactive)
GI50 (HT-29): 34.4 µM (inactive)
GI50 (IGROV-1): 72.1 µM (inactive)
GI50 (K562): 27.3 µM (inactive)
GI50 (KM-20L2): 23.4 µM (inactive)
GI50 (KM12): 38.2 µM (inactive)
GI50 (LOX IMVI): 33.3 µM (inactive)
GI50 (LXFL 529): 35.2 µM (inactive)
GI50 (M14): 31 µM (inactive)
GI50 (MOLT-4): 38.2 µM (inactive)
GI50 (Malme-3M): 37.7 µM (inactive)
GI50 (NCI-H226): > 100 µM (inactive)
GI50 (NCI-H23): 37.7 µM (inactive)
GI50 (NCI-H460): 31.2 µM (inactive)
GI50 (NCI-H522): 4.4 µM (inactive)
GI50 (OVCAR-4): 42.9 µM (inactive)
GI50 (OVCAR-5): > 100 µM (inactive)
GI50 (OVCAR-8): 25.5 µM (inactive)
GI50 (RPMI-8226): 92.3 µM (inactive)
GI50 (RXF 393): 86.7 µM (inactive)
GI50 (RXF 631): 42.2 µM (inactive)
GI50 (SF-268): 46.7 µM (inactive)
GI50 (SF-295): > 10 µM (inactive)
GI50 (SF-539): 21 µM (inactive)
GI50 (SK-MEL-28): 14.5 µM (inactive)
GI50 (SK-MEL-2): 33.4 µM (inactive)
GI50 (SK-MEL-5): 23.7 µM (inactive)
GI50 (SK-OV-3): 37 µM (inactive)
GI50 (SN12C): 51.4 µM (inactive)
GI50 (SNB-75): 93.3 µM (inactive)
GI50 (SR): 54.5 µM (inactive)
GI50 (SW-620): 38.1 µM (inactive)
GI50 (TK-10): > 100 µM (inactive)
GI50 (U-251): 34 µM (inactive)
GI50 (UACC-257): 67.9 µM (inactive)
GI50 (UACC-62): 33.7 µM (inactive)
GI50 (UO-31): > 100 µM (inactive)
GI50 (XF498): 45 µM (inactive)
